# Test results published in patent US20230285372A1, “Pharmaceutical use of (E)-3-arylheterocyclylprop-2-enoic acid derivatives” (MEDCURIUS INC., priority 2020, published 2023).
# “And” between values parts separate entries of the source, which are not always exact repeats. Identical values can stand only once.
# Tests used:
# p-synuclein = experiment: Phosphorylated α-synuclein (p-synuclein) level in midbrain, Western blot, MPTP mouse; format: in vivo; settings: vs model group
# Source text: The core pathological change of Parkinson's disease is the loss of dopaminergic neurons. Tyrosine hydroxylase (TH), the rate-limiting enzyme in dopamine synthesis, is the landmark protein of the dopaminergic neurons. Therefore, the decrease in its level indicates the loss of the dopaminergic neurons. A key protein for the occurrence and development of Parkinson's disease is α-synuclein protein, and the abnormal modification (hyperphosphorylation) of this protein can inhibit microtubule polymerization, enhance oxidative stress, and thus accelerate the death of the dopaminergic neurons.
# (§1) Male C57 mouse were screened for their motor function by a mouse rod-rotating test, and unqualified ones were excluded from the test. […] MPTP was injected subcutaneously every 4 days in the model group and the drug administration group with a dosage of 25 mg/kg for 40 consecutive days. Each group of I-5 was administered once a day at 8:00 am and 8:00 pm (by intragastric administration), twice in total. […] The intragastric volume was 0.1 ml/10 g body weight, and the behavior test was started 40 days later. […] The storage time of the prepared liquid medicine was not more than 24 hours.
# Tissues from all the animals were collected on the second day after the end of the behavioral experiment. Hearts from six animals in each group were perfused and fixed with paraformaldehyde for pathological analysis of paraffin sections. Brain tissue of the remaining animals was separated on ice, and brain areas (midbrain) related to Parkinson's disease were collected. After being frozen with liquid nitrogen, they were stored in a refrigerator at −80° C. for protein analysis. The level of tyrosine hydroxylase (TH), a marker protein of dopaminergic neurons, was detected by immumohistochemistry, and α-synuclein protein level and phosphorylation level of the protein were detected by Western blot.
# HO-1 = HO-1 expression in HT-22 cytoplasm, Western Blot; format: cell-based, mouse; settings: HT-22 cells, 1.25 μM and 0.625 μM, 24 hours, vs control group
# Source text: As a transcription factor, Nrf2 needs to enter the nucleus and combine with ARE sequence to play a role in transcriptional activation. Therefore, Nrf2 protein level in the nucleus is an important prerequisite for the activation of Nrf2 signaling pathway. NQO-1 and HO-1 are target genes regulated by Nrf2, and the increase of their protein levels is an important sign of activation of the Nrf2 signaling pathway.
# HT-22 cells in logarithmic growth phase were selected, the culture medium was discarded, the cells were digested with 0.25% Trypsin containing EDTA, and cell suspension was made. Cell density was adjusted to 50000/ml with DMEM/F12 medium (containing 10% FBS and 1% double antibody) and it was inoculated to 6-well plate, with 2000 μL/well, the number of cells per well was 100, 000, and the cells were cultured in a cell incubator at 37° C. in an atmosphere containing 5% CO2 for 24 hours. Then, the medium of each well was replaced with new 1980 μL DMEM/F12 medium. […] After 24 hours, the cells were collected, nuclear protein and cytoplasmic protein were extracted, and the level of Nrf2 in the nucleus and the expression of NQO-1 and HO-1 in cytoplasm were detected by Western Blot.
# [1] = system: MPTP-induced Parkinson's disease mouse; experiment: Pole-climbing test, MPTP-induced Parkinson's disease mouse; format: in vivo; settings: 40 days, vs model group
# Experimental: as §1
# A climbing pole in the pole-climbing test was a rough wooden pole with a diameter of 2 cm and a length of 50 cm. The bottom of the wooden pole was located in the mouse home cage and was vertically oriented. When the mouse was placed on top of the wooden pole, it would naturally descend to the bottom of the wooden pole and reach the base of the pole. […] The mouse should have a pre-acclimation period of 2 days prior to the test, training five times a day. To the test day, the time required for the […] to reach the bottom (incubation period) was taken as an evaluation index to observe the effect of the tested compound on the motion ability of the mouse.
# [2] = system: MPTP-induced Parkinson's disease mouse; experiment: Model of MPTP-induced Parkinson's disease mouse, overall conclusion; format: in vivo; settings: improves MPTP-induced dyskinesia and inhibits neurodegeneration; bid intragastric
# Experimental: as §1
smiles,measurement,setting,value
N#C/C=C/c1ccccn1 [Compound I-5],p-synuclein protein level in the midbrain,"p-synuclein; I-5 10 mg/kg, p<0.01",significantly lower than that in the model group
same,p-synuclein protein level in the midbrain,"p-synuclein; I-5 20 mg/kg, p<0.05",significantly lower than that in the model group
same,protein level of HO-1,HO-1,increased significantly
same,latency of mouse reaching the base of the pole,"[1]; I-5 5 mg/kg bid intragastric, p<0.01",significantly shortened
same,latency of mouse reaching the base of the pole,"[1]; I-5 10 mg/kg bid intragastric, p<0.0001",significantly shortened
same,latency of mouse reaching the base of the pole,"[1]; I-5 20 mg/kg bid intragastric, p<0.0001",significantly shortened
same,effective doses,[2],10 mg/kg and 20 mg/kg
